From US10023708B2, “Method of producing a delivery device” (PTT HOLDING APS, priority 2011, dated 2018)

Key:
[1] = Loading of Ceragenin CSA-13 into IPN discs and its release; details: IPN discs about 20% PHEMA loaded in EtOH + CO2
Description: 6 IPN discs (010 mm, thickness 1-2 mm) obtained from Example 1 and with about 20% PHEMA (total mass about 1.3266 g) was loaded with about 500 mg Ceragenin CSA-13. The loading solvent was 2.00 ml 99.8% EtOH supplied by Merck (Germany) and N48 CO2 (supplied by Air Liquid Denmark A/S (Denmark)). The Ceragenin CSA-13 was initially dissolved in the 2.00 ml 99.8% EtOH and injected into a reactor of 16 ml comprising the discs. The pressure was raised to about 300 bars by injecting CO2 and the temperature was raised to about 75° C. The discs were treated at this pressure and temperature under stirring (1100 rpm) for 21 hours and 50 minutes, where after the pressure was reduced, the discs were withdrawn and allowed to cool down.

[2] = Release of miconazole nitrate from loaded IPN discs versus PDMS discs; type: physicochemical; details: 75° C., 2 hours
Description: a) 10 PDMS (Polydimethylsiloxane) (silpuran 6000/40 supplied by Wacker) discs within the same mass range were used per high pressure vessel for loading drug into PDMS. […] The reactors were then coupled to a scCO2 system. scCO2 was applied at 350 bars until the pressure inside the reactors also reached 350 bars. The pressure remained at 350 bars throughout the procedure. The reaction was left for equilibration for 2 hours. d) The pressure was released, and the discs loaded with miconazole nitrate were gently cleaned with ethanol, and stored protected from light. a) 10 PDMS (Polydimethylsiloxane) discs within the same mass range were used per high pressure vessel for loading drug into PDMS. […] The reactors were then coupled to a scCO2 system. scCO2 was applied at 350 bars until the pressure inside the reactors also reached 350 bars. This pressure was maintained throughout the procedure. The reaction was left for equilibration for 2 hours. d) The pressure was released, and the discs loaded with miconazole nitrate were gently cleaned with ethanol, and stored protected from light.

[3] = Determination of work of adhesion Wsc between chemical compound and first polymer; type: physicochemical
Excerpt: (§1) The “work of adhesion” between two dissimilar materials is a measure of the energy required to separate the two dissimilar materials from each other. The work of adhesion is indicated with Wxy, wherein x and y respectively are the two dissimilar materials in question. Wxy is herein determined in joule per square meter of contact area of the x and y material to be separated (J/m^2). The contact area of the second polymer and the chemical component is proportional to the amount of a given chemical component and accordingly the Whc value could also be determined as J/mol chemical component. Work of adhesion (Whc) between the second polymer (h) and the chemical component (c) is determined according to the formula: Whc=γhn+γcn−γch, wherein γhn is the interfacial tension between h and n, γcn is the interfacial tension between c and n, and γch is the interfacial tension between c and h, where h=second polymer, n=normal saline and c=chemical component. The respective values of interfacial tension can be determined by any well known method or they can be calculated. Interfacial tensions can be determined from surface tensions of the individual compound, which can be measured or estimated from e.g. HSP which can be measured or estimated from group contribution calculations based on the chemical structure of the individual compound in question. […] At 1 bar and 25° C. the respective work of adhesion between sulfamethizole and the two polymers PDMS and PHEMA of the IPN of Example 1 was determined with respectively EtOH and water as loading solvents. Work of adhesion between sulfamethizole and the two polymers PDMS and PHEMA of the IPN of Example 1 was determined with varying volume fractions of EtOH in a loading solvent of EtOH and scCO2. The determination was determined at 300 bars and 75° C.

[4] = Determination of work of adhesion Whc between chemical compound and second polymer; type: physicochemical
Excerpt: as §1

[5] = Release of sulfamethizole from loaded IPN discs soaked in phosphate buffer; type: physicochemical; details: soaked in phosphate buffer solution at pH 4.5 over a period of about 14 days
Description: 2.5 g sulfamethizole (Unikem) was mixed with 60 ml sodium thiosulfate solution (12 ml 0.1 M was diluted to 60 ml using deionized water).
Drug loading was performed by placing 10 discs obtained from Example 1 in a 16 ml reactor. 2.00 ml of the above sulfamethizole mixture and 2.00 ml 99.8% EtOH supplied by Merck (Germany) was fed to the reactor. The discs were kept under stirring during the treatment time. The pressure in the reactor was initially raised to about 100 bars and with a temperature of about 44° C. Thereafter the temperature was raised to 75° C. and the pressure increased to 300 bars with CO2 (N48 CO2 supplied by Air Liquid Denmark A/S).

[6] = 1 bar, 25° C., loading solvent EtOH
[7] = 1 bar, 25° C., loading solvent Water
[8] = 300 bars, 75° C., volume fractions EtOH 0.0000 / scCO2 1.0000
[9] = 300 bars, 75° C., volume fractions EtOH 0.0625 / scCO2 0.9375
[10] = 300 bars, 75° C., volume fractions EtOH 0.1250 / scCO2 0.8750
[11] = 300 bars, 75° C., volume fractions EtOH 0.1875 / scCO2 0.8125
[12] = 300 bars, 75° C., volume fractions EtOH 0.2500 / scCO2 0.7500
[13] = 300 bars, 75° C., volume fractions EtOH 0.3125 / scCO2 0.6875
[14] = 300 bars, 75° C., volume fractions EtOH 0.3750 / scCO2 0.6250
[15] = 300 bars, 75° C., volume fractions EtOH 0.4375 / scCO2 0.5625
[16] = 300 bars, 75° C., volume fractions EtOH 0.5000 / scCO2 0.5000
[17] = 300 bars, 75° C., volume fractions EtOH 0.5625 / scCO2 0.4375
[18] = 300 bars, 75° C., volume fractions EtOH 0.6250 / scCO2 0.3750
[19] = 300 bars, 75° C., volume fractions EtOH 0.6875 / scCO2 0.3125
[20] = 300 bars, 75° C., volume fractions EtOH 0.7500 / scCO2 0.2500
[21] = 300 bars, 75° C., volume fractions EtOH 0.8125 / scCO2 0.1875
[22] = 300 bars, 75° C., volume fractions EtOH 0.8750 / scCO2 0.1250
[23] = 300 bars, 75° C., volume fractions EtOH 0.9375 / scCO2 0.0625
[24] = 300 bars, 75° C., volume fractions EtOH 1.0000 / scCO2 0.0000

In the case of CCCCCCCCNCCC[C@@H](C)[C@H]1CC[C@H]2[C@@H]3[C@H](OCCCN)C[C@@H]4C[C@H](OCCCN)CC[C@]4(C)[C@H]3C[C@H](OCCCN)[C@]12C [Ceragenin CSA-13], the “release from the delivery device, microbiological effect” value [1] is reported as “can be released in sufficient amounts to provide a significant microbiological effect”.
For Clc1ccc(COC(Cn2ccnc2)c2ccc(Cl)cc2Cl)c(Cl)c1 (stereo not drawn) [miconazole nitrate], the “amount releasable from the IPN discs compared with the PDMS discs” value ([2]; Test 1: loaded using scCO2, 350 bars) was “much higher” and the “amount releasable from the IPN discs compared with the PDMS discs” value ([2]; Test 2: loaded using scCO2 and methanol, 350 bars) was “much higher”.
With Cc1nnc(NS(=O)(=O)c2ccc(N)cc2)s1 [sulfamethizole] the “Work of adhesion Wsc s = PDMS c = sulfamethizole” value [3, 6] was 6.3434 J/m^2, the “Work of adhesion Wsc s = PDMS c = sulfamethizole” value [3, 7] was 57.7309 J/m^2 and the “Work of adhesion Wsc s = PDMS c = sulfamethizole” value [3, 8] was 14.1969 J/m^2. The “Work of adhesion Wsc s = PDMS c = sulfamethizole” value [3, 9] was 11.2585 J/m^2, the “Work of adhesion Wsc s = PDMS c = sulfamethizole” value [3, 10] was 8.714 J/m^2 and the “Work of adhesion Wsc s = PDMS c = sulfamethizole” value [3, 11] was 6.5641 J/m^2. For the same compound, the “Work of adhesion Wsc s = PDMS c = sulfamethizole” value [3, 12] was 4.8092 J/m^2, the “Work of adhesion Wsc s = PDMS c = sulfamethizole” value [3, 13] was 3.4498 J/m^2 and the “Work of adhesion Wsc s = PDMS c = sulfamethizole” value [3, 14] was 2.4864 J/m^2. The “Work of adhesion Wsc s = PDMS c = sulfamethizole” value [3, 15] was 1.9195 J/m^2, the “Work of adhesion Wsc s = PDMS c = sulfamethizole” value [3, 16] was 1.7497 J/m^2 and the “Work of adhesion Wsc s = PDMS c = sulfamethizole” value [3, 17] was 1.9773 J/m^2. For the same compound, the “Work of adhesion Wsc s = PDMS c = sulfamethizole” value [3, 18] was 2.6029 J/m^2, the “Work of adhesion Wsc s = PDMS c = sulfamethizole” value [3, 19] was 3.6271 J/m^2 and the “Work of adhesion Wsc s = PDMS c = sulfamethizole” value [3, 20] was 5.0502 J/m^2. The “Work of adhesion Wsc s = PDMS c = sulfamethizole” value [3, 21] was 6.8727 J/m^2, the “Work of adhesion Wsc s = PDMS c = sulfamethizole” value [3, 22] was 9.0953 J/m^2 and the “Work of adhesion Wsc s = PDMS c = sulfamethizole” value [3, 23] was 11.7183 J/m^2. For the same compound, the “Work of adhesion Wsc s = PDMS c = sulfamethizole” value [3, 24] was 14.7422 J/m^2, the “Work of adhesion Whc h = PHEMA c = sulfamethizole” value [4, 6] was 3.8908 J/m^2 and the “Work of adhesion Whc h = PHEMA c = sulfamethizole” value [4, 7] was 38.3326 J/m^2. The “Work of adhesion Whc h = PHEMA c = sulfamethizole” value [4, 8] was 29.8588 J/m^2, the “Work of adhesion Whc h = PHEMA c = sulfamethizole” value [4, 9] was 25.3418 J/m^2 and the “Work of adhesion Whc h = PHEMA c = sulfamethizole” value [4, 10] was 21.2182 J/m^2. The “Work of adhesion Whc h = PHEMA c = sulfamethizole” value [4, 11] was 17.4885 J/m^2, the “Work of adhesion Whc h = PHEMA c = sulfamethizole” value [4, 12] was 14.1531 J/m^2 and the “Work of adhesion Whc h = PHEMA c = sulfamethizole” value [4, 13] was 11.2126 J/m^2. For the same compound, the “Work of adhesion Whc h = PHEMA c = sulfamethizole” value [4, 14] was 8.6675 J/m^2, the “Work of adhesion Whc h = PHEMA c = sulfamethizole” value [4, 15] was 6.5181 J/m^2 and the “Work of adhesion Whc h = PHEMA c = sulfamethizole” value [4, 16] was 4.7652 J/m^2. For the same compound, the “Work of adhesion Whc h = PHEMA c = sulfamethizole” value [4, 17] was 3.4091 J/m^2, the “Work of adhesion Whc h = PHEMA c = sulfamethizole” value [4, 18] was 2.4503 J/m^2 and the “Work of adhesion Whc h = PHEMA c = sulfamethizole” value [4, 19] was 1.8894 J/m^2. For the same compound, the “Work of adhesion Whc h = PHEMA c = sulfamethizole” value [4, 20] was 1.7267 J/m^2, the “Work of adhesion Whc h = PHEMA c = sulfamethizole” value [4, 21] was 1.9629 J/m^2 and the “Work of adhesion Whc h = PHEMA c = sulfamethizole” value [4, 22] was 2.5985 J/m^2. For the same compound, the “Work of adhesion Whc h = PHEMA c = sulfamethizole” value [4, 23] was 3.6338 J/m^2, the “Work of adhesion Whc h = PHEMA c = sulfamethizole” value [4, 24] was 5.0694 J/m^2 and the “amount of loaded compound released from the discs” value [5] was “the major amount”.
